Laboratory results as given in article PMC8662641, “Site-Specific Labeling of Endogenous Proteins Using CoLDR Chemistry” (Journal of the American Chemical Society, 2021).

Columns and labels:
BTK = BTK (Homo sapiens, UniProt Q06187); design: BTK kinase domain was expressed and purified as previously reported; made in house; method as in Reddi et al., J. Am. Chem. Soc. 2021, 143 (13), 4979–4992; details: ref Reddi et al., J. Am. Chem. Soc. 2021, 143 (13), 4979–4992; cited from earlier work
BTK-1h = molecular target: T1, BTK-1h (Homo sapiens, UniProt Q06187); assay: High-throughput screening with 1h-labeled BTK; type: binding; details: Dataset S2A; 200 μM compound, BTK-1h, 32 °C, 10 min
T1 construct: The BTK kinase domain was diluted to 2 μM in the buffer, and 2 μM 1h was added; made in house
T1 sequence (Q06187 402-655): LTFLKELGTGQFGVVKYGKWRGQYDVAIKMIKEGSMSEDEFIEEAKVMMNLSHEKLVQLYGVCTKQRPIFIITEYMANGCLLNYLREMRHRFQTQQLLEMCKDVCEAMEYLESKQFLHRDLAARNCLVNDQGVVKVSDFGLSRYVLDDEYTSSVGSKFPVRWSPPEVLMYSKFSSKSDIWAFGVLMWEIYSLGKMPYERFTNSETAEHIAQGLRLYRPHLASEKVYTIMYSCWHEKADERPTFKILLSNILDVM
Method: The collection was composed of BTK binding compounds obtained in our previous luminescence screen[37] (Data set S2). […] The resulting BTK-1h (50 μL) was added to the inhibitors.

Chain of BTK (Q06187 402-655 limits assumed): as the sequence (Q06187 402-655) above

Row | Structure (SMILES) | BTK Inhibition reported in luminescence assay* (BTK) | FI (650)/FI (620) (BTK-1h) | FI (BTK-1h)/FI (BTK-1h+Inhibitor) at 620 nm (BTK-1h)
1 | COC1=CC(=O)c2ccccc2C1=O [PCM-0214886-001] | 85.6 | 0.9979 | 1.038
2 | COC[C@H]1C[C@@H](c2ncc(-c3ccc4c(c3)COc3cc5c(ccc6[nH]c([C@@H]7CC[C@H](C)N7C(=O)[C@@H](NC(=O)OC)C(C)C)nc65)cc3-4)[nH]2)N(C(=O)[C@H](NC(=O)OC)c2ccccc2)C1 [PCM-0214920-001] | 56 | 0.8577 | 1.025
3 | CC1(C)C=Cc2c(ccc3c2OC[C@@H](c2ccc(O)cc2O)C3)O1 [PCM-0214974-001] | 70.3 | 1.13 | 1.0065
4 | COc1nc2ccc(Br)cc2cc1[C@@H](c1ccccc1)[C@@](O)(CCN(C)C)c1cccc2ccccc12.O=C(O)/C=C/C(=O)O [PCM-0215093-001] | 84 | 1.148 | 1.067
5 | COc1ccc2c(O[C@@H]3C[C@H]4C(=O)N[C@]5(C(=O)NS(=O)(=O)C6CC6)C[C@H]5/C=C\CCCCN(C)C(=O)[C@@H]4C3)cc(-c3nc(C(C)C)cs3)nc2c1C [PCM-0215097-001] | 55.6 | 0.9923 | 1.053
6 | CN[C@H]1C(=O)N[C@@H]2Cc3ccc(cc3)Oc3cc4cc(c3O[C@@H]3O[C@H](C(=O)O)[C@@H](O)[C@H](O)[C@H]3NC(=O)CCCCCCCCC(C)C)Oc3ccc(cc3Cl)[C@@H](O)[C@@H]3NC(=O)[C@H](NC(=O)[C@@H]4NC(=O)[C@@H](NC2=O)c2cc(cc(O)c2Cl)Oc2cc1ccc2O)c1ccc(O)c(c1)-c1c(O[C@H]2O[C@H](CO)[C@@H](O)[C@H](O)[C@@H]2O)cc(O)cc1[C@@H](C(=O)NCCCN(C)C)NC3=O [PCM-0215113-001] | 73.2 | 0.7724 | 1.097
7 | Cl.N/C(=N\N=C\c1ccc(Cl)cc1)N/N=C/c1ccc(Cl)cc1 [PCM-0215125-001] | 77.8 | 1.174 | 1.002
8 | CCCCCCCCCCCCCCCC(=O)O[C@@H]1[C@@H](O)[C@@H](O)[C@@H]([C@H](NC(=O)[C@@H]2C[C@@H](CCC)CN2C)[C@H](C)Cl)O[C@@H]1SC.Cl [PCM-0215167-001] | 73.2 | 0.5899 | 0.9902
9 | COc1cc(N2CCC(N(C)C)CC2)ccc1Nc1ncc(Cl)c(Nc2ccccc2P(C)(C)=O)n1 [PCM-0215177-001] | 64.8 | 1.083 | 1.158
10 | O=C(NC(NC(=S)Nc1ccc(F)c([N+](=O)[O-])c1)C(Cl)(Cl)Cl)C(c1ccccc1)c1ccccc1 (stereo not drawn) [PCM-0215199-001] | 105.5 | 0.9898 | 1.025
11 | C=CC(=O)Nc1cccc(Nc2nc(Nc3ccc(NC4CN(CCF)C4)cc3OC)ncc2C(F)(F)F)c1 [PCM-0215208-001] | 91 | 1.1509 | 1.028
12 | C1=C/COCc2cc(ccc2OCCN2CCCC2)Nc2nccc(n2)-c2cccc(c2)COC/1 [PCM-0215268-001] | 71.7 | 1.364 | 1.2233
13 | COc1cc(N2CCC(N3CCN(C)CC3)CC2)ccc1Nc1ncnc(Nc2ccccc2S(=O)(=O)C(C)C)n1 [PCM-0215273-001] | 89 | 1.877 | 1.327
14 | C=CC(=O)N1CCN(C(=O)CNc2cc(I)c(Cl)cc2O)CC1 [PCM-0215367-001] | 84.9 | 1.111 | 1.004
15 | Cc1ccc(NC(=O)Nc2cc(C(F)(F)F)ccc2F)cc1Nc1ccc2c(c1)NC(=O)/C2=C\c1ccc[nH]1 [PCM-0215372-001] | 115.9 | 1.5507 | 1.003
16 | C[C@@H](Oc1ccc2[nH]nc(/C=C/c3cnn(CCO)c3)c2c1)c1c(Cl)cncc1Cl [PCM-0215376-001] | 101.4 | 1.5356 | 1.156
17 | CN1CCN(Cc2ccc(-c3cnc4[nH]cc(-c5ccc6[nH]ccc6c5)c4c3)cc2)CC1 [PCM-0215377-001] | 111 | 1.4774 | 1.04
18 | O=C(O)CSc1cc(NS(=O)(=O)c2ccc(Br)cc2)c2ccccc2c1O [PCM-0215378-001] | 51.7 | 1.912 | 0.9002

Row | Structure (SMILES) | BTK Inhibition reported in luminescence assay* (BTK) | FI (650)/FI (620) (BTK-1h) | FI (BTK-1h)/FI (BTK-1h+Inhibitor) at 620 nm (BTK-1h)
19 | CN1CCN(Cc2ccc(NC(=O)Nc3ccc(Oc4cc(NC(=O)C5CC5)ncn4)cc3)cc2C(F)(F)F)CC1 [PCM-0215388-001] | 79.5 | 1.014 | 1.145
20 | CCS(=O)(=O)N1CCN(c2ccc(Nc3ncc(C(N)=O)c(NC4CC4)n3)cc2)CC1.Cl [PCM-0215389-001] | 85.5 | 1.233 | 1.12
21 | COC(=O)N[C@H](C(=O)N1CC2(CC2)C[C@H]1c1ncc(-c2ccc3c(c2)C(F)(F)c2cc(-c4ccc5nc([C@@H]6[C@H]7CC[C@H](C7)N6C(=O)[C@@H](NC(=O)OC)C(C)C)[nH]c5c4)ccc2-3)[nH]1)C(C)C [PCM-0215396-001] | 74.9 | 0.8983 | 1.05
22 | Cc1cc(N=Nc2ccc(S(=O)(=O)Nc3ccccn3)cc2)c(N)cc1O [PCM-0215414-001] | 76.4 | 1.18 | 1.008
23 | C=CC(=O)N1CCC(Oc2cc3c(Nc4ccc(Cl)c(Cl)c4F)ncnc3cc2OC)CC1 [PCM-0215416-001] | 119.3 | 1.023 | 1.082
24 | O=C1NC(=O)C(c2cnc3ccccn23)=C1c1cn2c3c(cc(F)cc13)CN(C(=O)N1CCCCC1)CC2 [PCM-0215438-001] | 80 | 0.9847 | 1.0465
25 | CC#CC(=O)Nc1ccc2ncnc(Nc3cccc(Br)c3)c2c1 [PCM-0215449-001] | 102.8 | 1.009 | 1.056
26 | CCOC(=O)c1ccc(NC(=O)O[C@H]2[C@H](OC(=O)Nc3ccc4c(c3)OCO4)[C@@H](OC(=O)Nc3ccc4c(c3)OCO4)[C@@H](OC)O[C@@H]2CO)cc1 [PCM-0215463-001] | 98.1 | 0.9726 | 1.02
27 | C=CC(=O)Nc1cc(Nc2nccc(-c3c[nH]c4ccccc34)n2)c(OC)cc1N(C)CCN(C)C [PCM-0215489-001] | 91.7 | 1.101 | 1.031
28 | Cc1c(C(=O)Nc2ccc(Oc3ccnc4[nH]cc(-c5ccccc5)c34)c(F)c2)c(=O)n(-c2ccc(F)cc2)n1C [PCM-0215493-001] | 95.9 | 1.1367 | 1.0338
29 | C=CC(=O)Nc1cccc(C)c1Nc1ncc2cc(-c3c(Cl)c(OC)cc(OC)c3Cl)ccc2n1 [PCM-0215508-001] | 100.4 | 1.043 | 1.041
30 | CN1CCN(Cc2ccc(Nc3ncc(Cl)c(Nc4ccccc4S(=O)(=O)N(C)C)n3)cc2)CC1 [PCM-0215510-001] | 67.2 | 1.221 | 1.15
31 | CC(=O)O/N=C1/C(c2c(O)[nH]c3cc(Br)ccc23)=Nc2ccccc21 [PCM-0215536-001] | 60.7 | 1.013 | 1.019
32 | Cc1noc(C)c1-c1ccc(-c2cc(C(N)=O)c(NC(N)=O)s2)c(O[C@H]2CCNC2)c1 [PCM-0215541-001, AZD3264] | 74.1 | 2.057 | 1.467
33 | NC(=O)c1cnc2[nH]ccc2c1NC1[C@@H]2CC3C[C@H]1CC(O)(C3)C2 (stereo partly drawn) [PCM-0215550-001] | 94.5 | 1.093 | 1.086
34 | CN1CCN(c2ccc(C(=O)Nc3n[nH]c4ccc(Cc5cc(F)cc(F)c5)cc34)c(NC3CCOCC3)c2)CC1 [PCM-0215551-001] | 102.8 | 0.9755 | 1.038
35 | COc1cccc(-n2c(=O)[nH]c3cc(Cl)n(-c4ccc(-c5cccc(OC)c5O)cc4)c3c2=O)c1 [PCM-0215555-001] | 99.3 | 1.019 | 1.0396
36 | C=CC(=O)Nc1ccc(CN2C(=O)N(c3cc(OC)cc(OC)c3)Cc3cnc(Nc4ccc(N5CCN(C)CC5)cc4)nc32)cc1 [PCM-0215559-001] | 88.3 | 1.072 | 1.041
